Results as given in ChEMBL document CHEMBL5154726, “Identification of triazolopyridine derivatives as a new class of AhR agonists and evaluation of anti-psoriasis effect in a mouse model” (Eur J Med Chem, 2022).
Active and inactive are the calls of the source. The calls are words filed in the database; no cut-off is given here.

How the values were obtained:
[1] = molecular target: T1, Aryl hydrocarbon receptor (Homo sapiens, UniProt P35869); assay: Induction of Ahr signalling in human HaCaT cells assessed as upregulation of HRNR expression incubated for 48 hrs; format: cell-based
T1 sequence (P35869 whole entry): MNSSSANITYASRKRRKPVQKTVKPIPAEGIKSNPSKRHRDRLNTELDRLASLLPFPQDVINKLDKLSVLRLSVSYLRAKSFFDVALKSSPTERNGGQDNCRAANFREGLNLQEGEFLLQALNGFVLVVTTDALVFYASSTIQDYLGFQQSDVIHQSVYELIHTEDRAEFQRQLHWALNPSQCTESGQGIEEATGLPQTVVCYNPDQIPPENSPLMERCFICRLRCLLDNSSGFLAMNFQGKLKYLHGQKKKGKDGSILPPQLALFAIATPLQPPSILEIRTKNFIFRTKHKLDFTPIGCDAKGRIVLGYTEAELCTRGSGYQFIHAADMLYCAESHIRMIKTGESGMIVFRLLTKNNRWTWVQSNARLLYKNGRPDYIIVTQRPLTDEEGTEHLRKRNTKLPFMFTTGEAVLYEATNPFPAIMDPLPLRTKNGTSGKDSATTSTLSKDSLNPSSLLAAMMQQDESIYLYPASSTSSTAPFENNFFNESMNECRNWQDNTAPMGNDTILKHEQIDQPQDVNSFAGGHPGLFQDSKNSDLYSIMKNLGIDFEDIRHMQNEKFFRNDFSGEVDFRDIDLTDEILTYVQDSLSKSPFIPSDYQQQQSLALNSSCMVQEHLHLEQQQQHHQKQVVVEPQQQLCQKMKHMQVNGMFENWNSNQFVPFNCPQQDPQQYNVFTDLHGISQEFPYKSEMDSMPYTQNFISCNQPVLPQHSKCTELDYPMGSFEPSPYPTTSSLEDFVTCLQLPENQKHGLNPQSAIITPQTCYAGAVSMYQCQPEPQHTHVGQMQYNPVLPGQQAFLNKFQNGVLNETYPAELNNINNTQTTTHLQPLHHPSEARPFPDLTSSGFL

Cytochrome P450 2C19 = Cytochrome P450 2C19 (Homo sapiens, UniProt P33261); assay: Inhibition of CYP2C19 in human liver microsomes in presence of NADPH by LC-MS/MS analysis; format: ADME, Microsome
[2] = Tmax in Sprague-Dawley rat at 10 mg/kg, po measured up to 24 hrs by LC-MS/MS analysis; format: ADME, organism-based; settings: in vivo
Mus musculus [3] = assay: Anti-psoriatic activity in IMQ-induced BALB/c psoriasis mouse model assessed as reduction in erythema at 0.1 to 1 % treated topically by H and E staining based analysis; format: functional, organism-based; settings: dose 0.1-1 %
[4] = n-Octanol/water partition coefficient, logD of the compound at 1 mg incubated for 48 hrs under shaking condition by LC/MS analysis; format: physicochemical
Mus musculus [5] = assay: Anti-psoriatic activity in IMQ-induced BALB/c psoriasis mouse model assessed as reduction in skin thickening at 0.1 to 1 % treated topically by H and E staining based analysis; format: functional, organism-based; settings: dose 0.1-1 %
Mus musculus [6] = assay: Anti-psoriatic activity in IMQ-induced BALB/c psoriasis mouse model assessed as reduction in IL-17f expression at 0.1 to 1 % treated topically by qRT-PCR analysis; format: functional, organism-based; settings: dose 0.1-1 %
[7] = Oral bioavailability in Sprague-Dawley rat at 10 mg/kg measured up to 24 hrs by LC-MS/MS analysis; format: ADME, organism-based; settings: in vivo
Mus musculus [8] = assay: Anti-psoriatic activity in IMQ-induced BALB/c psoriasis mouse model assessed as reduction in skin thickening at 5 to 20 mg/kg, po by H and E staining based analysis; format: functional, organism-based; settings: dose 5-20 mg/kg
[9] = MRT in Sprague-Dawley rat at 10 mg/kg, po measured up to 24 hrs by LC-MS/MS analysis; format: ADME, organism-based; settings: in vivo
[10] = Apparent permeability in MDCK cells at 50 uM incubated for 90 mins by LC/MS analysis; format: ADME, cell-based, Canis lupus familiaris; settings: dog
[11] = molecular target: T1, Aryl hydrocarbon receptor; assay: Induction of Ahr signalling in human HaCaT cells assessed as upregulation of FLG expression incubated for 48 hrs; format: cell-based
Mus musculus [12] = assay: Anti-psoriatic activity in IMQ-induced BALB/c psoriasis mouse model assessed as reduction in scaling at 0.1 to 1 % treated topically by H and E staining based analysis; format: functional, organism-based; settings: dose 0.1-1 %
[13] = molecular target: T2, Nuclear factor erythroid 2-related factor 2 (Homo sapiens) (UniProt Q16236); assay: Activation of Nrf2 expression in human HaCaT cells up to 10 uM by qRT-PCR analysis; format: cell-based; settings: filed as activator
T2 sequence (whole entry): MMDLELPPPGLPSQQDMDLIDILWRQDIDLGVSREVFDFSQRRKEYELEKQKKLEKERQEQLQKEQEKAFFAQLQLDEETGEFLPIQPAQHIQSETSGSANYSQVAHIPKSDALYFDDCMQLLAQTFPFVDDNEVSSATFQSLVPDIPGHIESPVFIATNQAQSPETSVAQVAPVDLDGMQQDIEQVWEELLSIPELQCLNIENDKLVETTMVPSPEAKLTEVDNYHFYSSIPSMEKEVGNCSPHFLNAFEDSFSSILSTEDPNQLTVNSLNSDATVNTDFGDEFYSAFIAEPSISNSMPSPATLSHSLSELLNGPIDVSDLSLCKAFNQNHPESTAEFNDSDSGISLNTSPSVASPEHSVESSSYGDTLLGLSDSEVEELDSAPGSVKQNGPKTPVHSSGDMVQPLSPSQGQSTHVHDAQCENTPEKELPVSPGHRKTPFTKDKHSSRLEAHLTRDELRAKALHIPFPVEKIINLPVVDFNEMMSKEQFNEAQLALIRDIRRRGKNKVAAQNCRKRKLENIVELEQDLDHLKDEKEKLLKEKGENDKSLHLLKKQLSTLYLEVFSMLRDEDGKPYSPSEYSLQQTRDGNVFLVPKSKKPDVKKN

[14] = Cytotoxicity against HEK293T cells assessed as reduction in cell viability measured after 72 hrs by MTT assay; format: toxicity, cell-based, HEK-293T; settings: human
Mus musculus [15] = assay: Anti-psoriatic activity in IMQ-induced BALB/c psoriasis mouse model assessed as reduction in erythema at 5 to 20 mg/kg, po by H and E staining based analysis; format: functional, organism-based; settings: dose 5-20 mg/kg
Mus musculus [16] = assay: Anti-psoriatic activity in IMQ-induced BALB/c psoriasis mouse model assessed as reduction in scaling at 5 to 20 mg/kg, po by H and E staining based analysis; format: functional, organism-based; settings: dose 5-20 mg/kg
HaCaT = assay: Downregulation of CYP1A1 gene expression in AhR knockdown human HaCaT cells incubated for 48 hrs by qRT-PCR analysis; format: functional, cell-based
[17] = molecular target: T1, Aryl hydrocarbon receptor; assay: Agonist activity at AhR signalling in human HaCaT cells assessed as increase in CYP1A1 mRNA expression by qRT-PCR analysis; format: cell-based; settings: 10 µM, DDE = dose-dependent effect
[18] = molecular target: T1, Aryl hydrocarbon receptor; assay: Induction of Ahr signalling in human HaCaT cells assessed as upregulation of IVL expression incubated for 48 hrs; format: cell-based
[19] = Efflux ratio of apparent permeability in MDCK cells; format: ADME, cell-based, Canis lupus familiaris; settings: dog
[20] = molecular target: NAD(P)H dehydrogenase [quinone] 1 (Homo sapiens) (UniProt P15559); assay: Activation of NQO1 expression in human HaCaT cells up to 10 uM by qRT-PCR analysis; format: cell-based; settings: filed as activator
[21] = Half life in Sprague-Dawley rat at 10 mg/kg, po measured up to 24 hrs by LC-MS/MS analysis; format: ADME, organism-based; settings: in vivo

Chain of Cytochrome P450 2C19 (P33261 whole entry): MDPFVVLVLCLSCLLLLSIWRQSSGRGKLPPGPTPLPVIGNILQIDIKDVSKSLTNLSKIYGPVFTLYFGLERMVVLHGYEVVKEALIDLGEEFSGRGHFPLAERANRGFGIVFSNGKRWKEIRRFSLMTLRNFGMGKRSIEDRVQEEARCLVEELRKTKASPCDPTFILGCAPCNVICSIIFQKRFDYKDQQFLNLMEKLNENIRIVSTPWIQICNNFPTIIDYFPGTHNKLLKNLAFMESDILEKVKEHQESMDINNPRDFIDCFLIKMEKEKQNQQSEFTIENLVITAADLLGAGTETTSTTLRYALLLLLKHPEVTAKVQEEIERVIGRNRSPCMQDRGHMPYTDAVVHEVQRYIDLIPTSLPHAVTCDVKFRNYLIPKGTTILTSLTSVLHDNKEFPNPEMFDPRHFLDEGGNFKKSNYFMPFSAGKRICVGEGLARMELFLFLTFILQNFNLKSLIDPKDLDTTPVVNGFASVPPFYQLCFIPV
Chain of NAD(P)H dehydrogenase [quinone] 1 (Homo sapiens) (P15559 whole entry): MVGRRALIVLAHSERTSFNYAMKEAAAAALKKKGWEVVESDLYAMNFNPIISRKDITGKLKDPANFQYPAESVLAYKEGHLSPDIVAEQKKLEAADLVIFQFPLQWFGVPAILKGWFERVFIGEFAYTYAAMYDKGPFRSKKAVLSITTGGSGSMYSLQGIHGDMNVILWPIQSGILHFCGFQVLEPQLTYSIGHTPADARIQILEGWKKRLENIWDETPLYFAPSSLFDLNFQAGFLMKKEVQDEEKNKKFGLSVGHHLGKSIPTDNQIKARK

Activity [1]: Active | IC50 (Cytochrome P450 2C19): > 10 µM | Tmax [2]: 0.83 h | logD at 48 h [4]: 2.97 | bioavailability [7]: 15.1% | MRT [9]: 1.82 h | Papp at 1.5 h, 50 µM [10]: 3.49 ×10⁻⁶ cm/s | Activity [11]: Active | Activity [13]: Active | Activity [17]: Dde | Activity [18]: Active | efflux ratio [19]: 2.34 | Activity [20]: Active | half-life [21]: 6.97 h
SMILES: Brc1ccc(-c2nc3ccc(Br)cn3n2)cc1
Activity (Mus musculus [3]): Active | Activity (Mus musculus [5]): Active | Activity (Mus musculus [6]): Active | Activity (Mus musculus [8]): Active | Activity (Mus musculus [12]): Active | IC50 at 72 h [14]: > 300 µM | Activity (Mus musculus [15]): Active | Activity (Mus musculus [16]): Active | Activity (HaCaT): Active
